Legend:
FLR (flavone reductase) [1] = target: T1, FLR (flavone reductase) (Flavonifractor plautii, UniProt A0A096D7X8); assay: X-ray crystal structure (Se-SAD); assay type: binding; conditions: co-purified FMN at dimer interface
T1 construct: gene HMPREF9460_03474; SeMet-labelled for crystals

FLR (flavone reductase) [2] = target: T1, FLR (flavone reductase); assay: X-ray crystal structure, soaked SeMet crystal; assay type: binding; conditions: FMN bound, dimer interface
sgrIFR = target: T2, sgrIFR (Streptomyces griseus, UniProt B1W160); assay: conversion by E. coli expressing the enzyme; assay type: cell-based; conditions: product dihydrodaidzein
T2 construct: gene SGR_2256; expressed in E. coli BL21 from pET28a, activity of the cell culture
T2 sequence (B1W160 1-332): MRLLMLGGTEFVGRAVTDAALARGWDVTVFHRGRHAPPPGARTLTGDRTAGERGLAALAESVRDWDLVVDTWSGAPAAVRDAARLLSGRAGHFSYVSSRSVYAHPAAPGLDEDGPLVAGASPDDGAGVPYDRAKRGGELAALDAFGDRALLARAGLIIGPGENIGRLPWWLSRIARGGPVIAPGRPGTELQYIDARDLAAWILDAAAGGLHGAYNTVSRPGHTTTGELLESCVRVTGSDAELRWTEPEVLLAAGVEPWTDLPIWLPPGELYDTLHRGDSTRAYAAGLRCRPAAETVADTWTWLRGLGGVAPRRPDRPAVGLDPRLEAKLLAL

[3] = target: flavone reductase (FLR) from Flavonifractor plautii ATCC 49531 (Flavonifractor plautii ATCC 49531); assay: SEC-MALS; Superdex-200 10/300; 100 mM NaCl, 20 mM Tris-HCl pH 7.9, 3 mM FMN, 3 mM DTT; 100 uL of FLR at ~5 mg/mL injected; room temperature
purified protein = substrate: O=c1cc(-c2ccc(O)cc2)oc2cc(O)cc(O)c12; assay: purified protein; conditions: pH 7.0, 37 °C, 5 mM NADH, 0.5 mM FMN, 5 μM Fre, 5% DMSO, anaerobic
[4] = substrate: O=C1C[C@@H](c2ccc(O)cc2)Oc2cc(O)cc(O)c21; assay: HPLC, steady-state kinetics, reverse reaction; assay type: biochemical, Flavonifractor plautii; conditions: pH 7.0, 37 °C, 0.5 mM FMN, 5% DMSO, reverse reaction (dehydrogenation to apigenin)
Text: HPLC, steady-state kinetics, reverse reaction on FLR (flavone reductase) | The determination of the Km and kcat values of FLR for naringenin

Cc1cc2nc3c(=O)[nH]c(=O)nc-3n(C[C@H](O)[C@H](O)[C@H](O)COP(=O)(O)O)c2cc1C [FMN]
X-ray crystal structure (Se-SAD) (FLR (flavone reductase) [1]): The cofactor molecule FMN binds at the dimer interface

O=c1cc(-c2ccc(O)cc2)oc2cc(O)cc(O)c12 [apigenin]
X-ray crystal structure, soaked SeMet crystal (FLR (flavone reductase) [2]; 2.55 Å): solved the complex structures of FLR with various substrates, including apigenin, chrysin, and luteolin

O=c1cc(-c2ccccc2)oc2cc(O)cc(O)c12 [chrysin]
X-ray crystal structure, soaked SeMet crystal (FLR (flavone reductase) [2]; 2.65 Å): solved the complex structures of FLR with various substrates, including apigenin, chrysin, and luteolin

O=c1c(-c2ccc(O)cc2)coc2cc(O)ccc12 [daidzein]
conversion by E. coli expressing the enzyme (sgrIFR): they could convert daidzein (a main isoflavone) to dihydrodaidzein

O=c1cc(-c2ccc(O)c(O)c2)oc2cc(O)cc(O)c12 [luteolin]
X-ray crystal structure, soaked SeMet crystal (FLR (flavone reductase) [2]; 2.25 Å): solved the complex structures of FLR with various substrates, including apigenin, chrysin, and luteolin

flavone reductase (FLR) from Flavonifractor plautii ATCC 49531 (enzyme)
stoichiometry N [3]: 2

B1: FLR (flavone reductase) (Flavonifractor plautii 1_3_50AFAA) (protein)
chain: MKILGISGGMRNGSNDGMCIEALMGAKEMGAEVEFIQLQNLHIEHCTGCTACVQSVLGGRGGKCVLKDDFDWLLDKMLDADGIVFSTPIFEKGATGLFHTITDRFGPRMDRGNNIIGTKIAEETGGTAPDPRILKDKVISFMSVGGSDWVTRTQCDAGMLALTPMWKVIDNEVFPWALSILVEDERVARAHQIGRNIAEAAKNIEHAQYQGDAGVCPHCHSRNFHLQDGKAICCLCGLEGEIHNESGKYSFTFPAEQLEHAHDTLSGKFIHGNDIKENTGKKIANMQTEKYKARQAAYRAFITATVPEKG
notes: SeMet-labelled for crystals
Km (purified protein): 8.36 ± 1.34 µM | kcat (purified protein): 0.0165 ± 0.0009 s⁻¹ | Km [4]: 12.27 ± 1.46 µM | kcat [4]: 0.0577 ± 0.0025 s⁻¹
